Data reported in ChEMBL document CHEMBL1201862, “PubChem BioAssay data set” (2004).
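Growth conditions: 96-well plates. Treatment: test compound, 48 hours, 5 concentrations. Analysis: linear interpolation between bracketing concentrations; unreached endpoints set to highest concentration. Here, GI50 denotes the concentration required for 50% inhibition of growth.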 Calls of active or inactive are those of the source. Rule as the data show it: active = GI50 up to about 1.1 µM and inactive = higher.

Assays:
Experiment in all cases: DTP human tumour cell line panel, 48 h
HOP-62 = tested on: HOP-62
COLO 205 = tested on: COLO 205
CAKI-1 = tested on: CAKI-1
SW-620 = tested on: SW-620
SK-OV-3 = tested on: SK-OV-3
OVCAR-8 = tested on: OVCAR-8
NCI-H226 = tested on: NCI-H226
NCI-H522 = tested on: NCI-H522
ACHN = tested on: ACHN
OVCAR-3 = tested on: OVCAR-3
MOLT-4 = tested on: MOLT-4
UO-31 = tested on: UO-31
SK-MEL-28 = tested on: SK-MEL-28
NCI-H23 = tested on: NCI-H23
RPMI-8226 = tested on: RPMI-8226

Measured: GI50

O=C(/C=C1\Nc2ccccc2C(=O)N1c1ccccc1Cl)c1ccccc1
inactive: HOP-62 > 100 µM | COLO 205 > 100 µM | CAKI-1 > 100 µM | SW-620 > 100 µM | SK-OV-3 > 100 µM | OVCAR-8 > 100 µM | NCI-H226 > 100 µM | NCI-H522 > 100 µM | ACHN > 100 µM | OVCAR-3 88.9 µM | MOLT-4 76.4 µM | UO-31 > 100 µM | SK-MEL-28 > 100 µM | NCI-H23 > 100 µM

O=C(/C=C/c1ccc(OCCCOc2ccc(/C=C/C(=O)c3ccc(Cl)cc3)cc2)cc1)c1ccc(Cl)cc1
inactive: HOP-62 > 100 µM | RPMI-8226 > 100 µM | COLO 205 > 100 µM | CAKI-1 > 100 µM | SW-620 > 100 µM | SK-OV-3 > 100 µM | OVCAR-8 > 100 µM | NCI-H226 > 100 µM | NCI-H522 > 100 µM | ACHN > 100 µM | OVCAR-3 > 100 µM | MOLT-4 > 100 µM | SK-MEL-28 > 100 µM | NCI-H23 > 100 µM

CC1CCC2(OC1)OC1CC3C4CCC5CC(O)CCC5(C)C4CC(=O)OC3(C)C1C2C (stereo not given)
inactive: HOP-62 > 100 µM | RPMI-8226 > 100 µM | COLO 205 > 100 µM | CAKI-1 > 100 µM | SW-620 > 100 µM | SK-OV-3 > 100 µM | OVCAR-8 > 100 µM | NCI-H522 > 100 µM | ACHN > 100 µM | OVCAR-3 > 100 µM | MOLT-4 > 100 µM | UO-31 > 100 µM | SK-MEL-28 > 100 µM | NCI-H23 > 100 µM

[O-][n+]1c2cc3c(cc2[n+]([O-])c2c(O)cccc21)CN(CCN1CCOCC1)C3
inactive: RPMI-8226 18.4 µM | COLO 205 14.5 µM | CAKI-1 48.9 µM | SK-OV-3 17.1 µM | OVCAR-8 12.1 µM | NCI-H226 41.9 µM | NCI-H522 5.36 µM | ACHN 5.83 µM | OVCAR-3 18.7 µM | MOLT-4 4.43 µM | UO-31 10.6 µM | SK-MEL-28 > 100 µM | NCI-H23 30.7 µM

NC1=NC(=O)C(CC(=O)Nc2ccc(Cl)cc2Cl)S1 (stereo not given)
inactive: HOP-62 > 100 µM | RPMI-8226 > 100 µM | COLO 205 > 100 µM | CAKI-1 > 100 µM | SW-620 > 100 µM | SK-OV-3 > 100 µM | OVCAR-8 > 100 µM | ACHN > 100 µM | OVCAR-3 > 100 µM | MOLT-4 48.4 µM | UO-31 > 100 µM | SK-MEL-28 > 100 µM | NCI-H23 > 100 µM

O=C(Nc1cc(Cl)c(Cl)cc1Cl)C(=O)C1C(=O)NC(=S)NC1=O
inactive: HOP-62 > 100 µM | RPMI-8226 > 100 µM | COLO 205 > 100 µM | CAKI-1 > 100 µM | SW-620 > 100 µM | SK-OV-3 > 100 µM | OVCAR-8 > 100 µM | NCI-H226 > 100 µM | NCI-H522 > 100 µM | ACHN > 100 µM | MOLT-4 > 100 µM | UO-31 > 100 µM | SK-MEL-28 > 100 µM | NCI-H23 > 100 µM

COC(=O)C12C3C4C1C1C2C3C41C(=O)N(C(C)C)C(C)C (stereo not given)
inactive: HOP-62 > 100 µM | COLO 205 > 100 µM | SW-620 > 100 µM | SK-OV-3 > 100 µM | OVCAR-8 > 100 µM | NCI-H226 > 100 µM | NCI-H522 > 100 µM | ACHN > 100 µM | OVCAR-3 > 100 µM | MOLT-4 > 100 µM | UO-31 > 100 µM | SK-MEL-28 > 100 µM | NCI-H23 > 100 µM

CCNc1nc2c(=O)n(C)c(=O)n(C)c2s1
inactive: HOP-62 > 100 µM | RPMI-8226 > 100 µM | COLO 205 > 100 µM | SW-620 > 100 µM | SK-OV-3 > 100 µM | OVCAR-8 > 100 µM | NCI-H226 > 100 µM | NCI-H522 > 100 µM | ACHN > 100 µM | OVCAR-3 > 100 µM | MOLT-4 > 100 µM | UO-31 > 100 µM | SK-MEL-28 > 100 µM | NCI-H23 > 100 µM

CC1=CC(=O)N(c2c(C)cccc2Cl)C(C)N1 (stereo not given)
inactive: HOP-62 > 100 µM | COLO 205 > 100 µM | CAKI-1 > 100 µM | SW-620 > 100 µM | SK-OV-3 > 100 µM | OVCAR-8 > 100 µM | NCI-H226 > 100 µM | NCI-H522 > 100 µM | ACHN > 100 µM | OVCAR-3 > 100 µM | MOLT-4 > 100 µM | UO-31 > 100 µM | SK-MEL-28 > 100 µM | NCI-H23 > 100 µM

[N-]=[N+]=N/C1=C/CCCCC(=O)C1
inactive: HOP-62 > 100 µM | RPMI-8226 > 100 µM | COLO 205 > 100 µM | CAKI-1 > 100 µM | SW-620 > 100 µM | SK-OV-3 > 100 µM | OVCAR-8 > 100 µM | NCI-H522 71.1 µM | MOLT-4 > 100 µM | UO-31 > 100 µM | SK-MEL-28 > 100 µM | NCI-H23 > 100 µM
